Measured values as given in US20120040974A1, “MIF MODULATORS” (YALE UNIVERSITY, priority 2008, published 2012).
Where two headings read alike, the source gives them in different places. Values belong to the molecule of their own block, whether it stands above or below them.

Assays:
[1] = molecular target: T1, Human MIF tautomerase activity (HPP) (Homo sapiens, UniProt P14174); experiment: HPP tautomerase assay; assay type: biochemical; conditions: for Emax: read-out: HPP Max. Inhib.
T1 construct: made in house
T1 sequence (P14174 2-115 limits assumed): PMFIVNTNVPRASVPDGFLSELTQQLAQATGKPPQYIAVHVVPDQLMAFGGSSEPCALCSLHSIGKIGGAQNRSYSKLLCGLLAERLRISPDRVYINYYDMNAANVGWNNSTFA

[2] = molecular target: T2, MIF-CD74 binding (biotinylated recombinant human MIF / immobilized CD74 ectodomain) (Homo sapiens, UniProt P14174); experiment: MIF-CD74 binding (capture) assay; conditions: for IC50: Table 1, benzooxazolones B, inhibition of MIF-CD74 binding; for Capture % Max. Inhib.: Table 3, benzothiazolones, capture assay
T2 sequence (P14174 2-115 limits assumed): T1 sequence (P14174 2-115 limits assumed)

[3] = tested on: MIF-dependent ERK1/2 phosphorylation; experiment: MIF-dependent signal transduction in cells (ERK1/2 phosphorylation); assay type: cell-based; conditions: compared to isoxazoline-1
Method: Two additional assays were performed on compounds according to the present invention. In the first, MIF-dependent signal transduction in cells as evidenced by a reduction in ERK1/2 phosphorylation and its inhibitory action is compared to the known small molecule MIF antagonist, isoxazoline-1 following the assay reported in Leng L., Metz C, Fang Y, Xu J, Donnelly S, Baugh J, Delonery T, Chen Y, Mitchell R A, and Bucala R. 2003. MIF Signal Transduction Initiated by Binding to CD74. J Exp Med 197, 1467-1476.

[4] = tested on: ovarian cancer cell line; experiment: Growth inhibition of an ovarian cancer cell line; assay type: cell-based
Text: KSP inhibitor ARRY-520 is used as a substitute for Paclitaxel in Type I ovarian cancer cells. J Transl Med. 7:63.

[5] = Table 1, MIF tautomerase activity, HPP substrate

IC50 [1, 5]: 0.5 µM
Compound: Cc1ccc2oc(=O)n(Cc3ccccc3)c2c1 [Compound 1]

IC50 [2]: 200 µM
Compound: COc1cccc(Cn2c(=O)oc3ccc(OC)cc32)c1 [Compound 3, 5-methoxy-3-(3-methoxy-benzyl)-3H-benzooxazol-2-one]

IC50 [2]: 500 µM
Compound: COc1cccc(Cn2c(=O)oc3ccc(CO)cc32)c1 [Compound 4, 5-hydroxymethyl-3-(3-methoxy-benzyl)-3H-benzooxazol-2-one]

IC50 [2]: 300 µM
Compound: COc1cccc(Cn2c(=O)oc3ccc(C)cc32)c1 [Compound 5]

IC50 [1, 5]: 1 µM
Compound: O=c1oc2ccc(F)cc2n1Cc1ccccc1 [Compound 8]

Emax ([1]; Table 1, maximal inhibition of HPP tautomerase activity): 17%
Compound: COc1ccccc1Cn1c(=O)oc2ccc(F)cc21 [Compound 10]

IC50 [2]: > 1000 µM
Compound: O=c1oc2cc(O)ccc2n1Cc1ccccc1 [Compound 14]

Capture % Max. Inhib. [2]: 8%
IC50 ([1]; Table 3, benzothiazolones): 4.8 µM
Compound: O=c1c2ccc(F)cc2sn1-c1cccc(CO)c1 [Compound 29]

Second part, the molecule before the results:

Compound: Ic1cc(-c2ccccc2)ncn1 [Compound 4-IPP, 4-iodo-6-phenylpyrimidine, reference compound]
activity in the capture assay (MIF-CD74 binding), in words [2]: inactive
IC50 [2]: > 10000 µM

Compound: c1ccc(Cn2c(-c3cscn3)nc3ccccc32)cc1 [Compound 17, 4-(1-benzyl-1H-benzo[d]imidazol-2-yl)thiazole]
Emax ([1]; Table 2, other series): 40%

Compound: N#Cc1nc2ccccc2n1Cc1ccccc1 [Compound 18, 1-Benzyl-1H-benzoimidazole-2-carbonitrile]
Emax ([1]; Table 2, other series): 36%

Compound: O=C(c1cc2ccccc2o1)c1cc2ccccc2o1 [Compound 20, bisbenzofuran-2-yl methanone]
IC50 ([1]; Table 2, other series): 510 µM

Compound: O=c1c2ccc(F)cc2sn1-c1ccc(Cl)cc1 [Compound 25]
activity in the capture assay (MIF-CD74 binding), in words [2]: agonist behavior

Compound: O=c1c2cc(F)ccc2sn1-c1ccc(Cl)cc1 [Compound 30]
Capture % Max. Inhib. [2]: 7%
IC50 ([1]; Table 3, benzothiazolones): 2.8 µM

Compound: COc1ccccc1-n1sc2ccc(Cl)cc2c1=O [Compound 31]
Capture % Max. Inhib. [2]: 7%

Compound: O=c1c2cc(F)ccc2sn1-c1cccc(O)c1 [Compound 32]
Capture % Max. Inhib. [2]: 13%

Compound: CC(=O)OCc1cccc(-n2sc3cc(F)ccc3c2=O)c1 [Compound 33]
Capture % Max. Inhib. [2]: 12%

Compound: O=c1c2cc([N+](=O)[O-])ccc2sn1-c1ccc(Cl)cc1 [Compound 34]
Capture % Max. Inhib. [2]: 11%

Compound: O=c1c2cc(C(F)(F)F)ccc2sn1-c1ccc(Cl)cc1 [Compound 35]
Capture % Max. Inhib. [2]: 12%
IC50 ([1]; Table 3, benzothiazolones): 8.5 µM

Compound: O=c1c2ccc(Br)cc2sn1-c1ccc(Cl)cc1 [Compound 36]
Capture % Max. Inhib. [2]: 10%

Compound: N#Cc1ccc2c(=O)n(-c3ccc(Cl)cc3)sc2c1 [Compound 37]
Capture % Max. Inhib. [2]: 16%

Compound: Cc1ccc2oc(=O)n(Cc3cccc(O)c3)c2c1 [Compound 098]
inhibition of MIF-dependent signal transduction (reduction in ERK1/2 phosphorylation), in words [3]: significant inhibitory action
inhibition of growth of an ovarian cancer cell line, in words [4]: significant inhibitory action

Compound: COC(=O)CC1CC(c2ccc(O)cc2)=NO1 (centres unmarked) [ISO-1, reference compound]
activity in the capture assay (MIF-CD74 binding), in words [2]: inactive
activity in the HPP tautomerase assay, in words [1]: inactive
